From PMC12392461, “Beyond Estrogenicity: A Comparative Assessment of Bisphenol A and Its Alternatives in In Vitro Assays Questions Safety of Replacements” (Environmental Science & Technology, 2025)

What was measured:
[1] = molecular target: T1, Estrogen Receptor ERα (Homo sapiens, UniProt P03372); experiment: cell-based; settings: for EC10, linear transformed / EC10, linear / logEC10: dosing range all; for EC10, ERα (M): 10% of maximum effect of E2; for SR-ScoreERα: SR-Score, sigma k=1, x=5; for EC10: ERα; for REPBPA: relative estrogenic potency vs BPA; for EC10, ERα: effect; for log(1/EC10) ERα: input of the ToxPi score, values up to 1.00; for ERα activation: at noncytotoxic concentrations
T1 sequence (P03372 311-547 limits assumed): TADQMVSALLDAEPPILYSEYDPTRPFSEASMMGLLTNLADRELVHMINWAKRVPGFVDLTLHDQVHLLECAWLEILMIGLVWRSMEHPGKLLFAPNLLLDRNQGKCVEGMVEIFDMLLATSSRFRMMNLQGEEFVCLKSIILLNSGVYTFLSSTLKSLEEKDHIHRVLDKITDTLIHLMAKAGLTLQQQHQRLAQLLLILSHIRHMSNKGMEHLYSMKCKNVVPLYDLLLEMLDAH
Procedure, shortened: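 ERα-UAS-bla GripTite and PPARγ-UAS-bla reporter cells were seeded in assay medium with 2% charcoal-stripped FBS and held 24 h at 37 °C before dosing. Viability came from IncuCyte confluency before and after exposure. EC10 used only concentrations below IC10; Emax% is the log-logistic curve maximum relative to the reference chemical.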

[2] = test system: HEK293H, HEK293T, H4IIe, MCF7 and SH-SY5Y cells; settings: for cytotoxicity,median REPBPA,IC10: median IC10 relative to BPA; for IC10,Median (M): median cytotoxicity of all cell lines; for IC10, median: median cytotoxicity over all cell lines
Method: Cell culture conditions and bioassay protocols including response detection are provided in Text S2.1–2.4 and Table S3. − Cell viability was determined from cell confluency using an IncuCyte S3 Live-Cell Analysis System (Sartorius AG, Essen, Germany) before and after exposure, except for SH-SY5Y cells (live–dead staining with Nuclear Green LcS1 and propidium iodide, Abcam, UK). For metabolic activation experiments, cell viability was assessed using the ToxBLAzer DualScreen Kit (Thermo Fisher Scientific) to capture the remaining toxicity in ERα-UAS-bla GripTite after treatment with the aCYP catalyst (details in Text S2.4).
For ARE, the concentration that triggered an induction ratio of 1.5 (ECIR1.5) was used as the benchmark value, as detailed in Text S2.5. IC10 values also served as a threshold for data analysis in all assays; only concentrations below IC10 were considered when deriving EC10 or ECIR1.5.
TR indicates whether the cytotoxicity is triggered by specific toxicity mechanisms (TR ≥ 10) or not (0.1< TR< 10). 3 TR=IC10,baseline/IC10 We measured the cytotoxicity of BPA and its alternatives in HEK293H (PPARγ), HEK293T (ERα), H4IIe (AhR CALUX), MCF7 (ARE/MMP), and differentiated SH-SY5Y cells (Table S6). […]
medium, supplemented with 2% B-27 Supplement and 2 mM GlutaMAX Supplement. SH - SY5Y cells were differentiated with 10 µM all-trans retinoic acid prior to the assay.
S2.2: Cell Seeding and Incubation. For all bioassays, cell suspensions in the respective assay medium were dispensed into each well of 384-well plates using a MultiFlo Dispenser (Biotek, (now Agilent), Winooski, VT, U.S.). After seeding, the plates were incubated at 37° C and 5% CO₂ for […]. The final cell densities and plate types were as follows: Black poly-D-lysine […]
6500 cells/well, ERα: 5000 cells/well. White 384-well plates with a clear bottom (Product No.
NYC, U.S.) for AhR: 3250 cells/well. Black Collagen I coated plates were used (Product No.
S2.3: Chemical Dosing and Assay Analysis Procedures. The dosing procedure and high-throughput assay workflow have been described in detail before. 9 The dosing concentrations […]
Stock solutions were then either added directly to the respective cell culture medium or evaporated under nitrogen, followed by replenishment with fresh medium. The final solvent content in each well was kept below 1% for methanol, 0% for acetonitrile.
Dosing plates were prepared as 11 -step serial dilutions using a Hamilton Microlab Star robotic system (Hamilton, Bonaduz, Switzerland), and chemicals were dosed in duplicates by transferring 10 μL twice from the dosing plates to the cell plates . After quantifying cell confluency as described in S2. 4., the exposed cells were incubated at 37° C and 5% CO₂ for an additional 24 h. All chemicals were tested in all assays with at least three independent […]
S2.4: Cell Viability Measurement s and bioanalytical protocols . The confluency as a measure of cell viability was determined with an IncuCyte S3 Live -Cell Analysis System (Sartorius AG, Essen, Germany). With this method the confluency of cells in a microscopy image are normalized to control wells without cells and compared before and after 24 hours of exposure.
This method has been described previously 13. Cell viability of SH-SY5Y cells was measured […]
propidium iodide (PI, Abcam, Cambridge, U.K.).14 Nuclear Green LCS1 is a membrane-permeable dye that stains the nuclei of all cells, whereas PI only enters cells with compromised membrane integrity (non-viable cells). After staining, live cells show green nuclei without red fluorescence, while dead cells display both green and red nuclear fluorescence due to PI […]
intercalation. Cell viability was calculated as the proportion of green-only nuclei relative to the […]
For experiments with the preceding aCYP activation, ERα cell viability was additionally calculated from the readout of the ToxBLAzer reagent. The ToxBLAzer assay was conducted following the manufacturer's instructions (Thermo Fisher, Waltham, MA, U.S.).13 Fluorescence

[3] = 15 min
Method: The mixtures were adjusted to a final volume of 100 μL with acetonitrile (ACN). The reaction mix was incubated for 15 min at 30 °C and 1000 rpm on a Bioshake iQ orbital shaker from QInstruments (Jena, Germany). Additionally, a mixture without test compounds was prepared as a control. Subsequently, 10 μL of the reaction mixture was transferred into a conical dosing vial and evaporated under a nitrogen flow.
For chemical analysis, 10 μL of the reaction mixture was concentrated under vacuum (CentriVap, Labconco, Kansas City, MO, USA), diluted to 1 mg/L in ACN or ethyl acetate. The chemical analysis of the reaction mixtures was performed using liquid chromatography (LC) and gas chromatography (GC) coupled with various detection techniques, preferably Multiple Reaction Monitoring (MRM). Data acquisition and processing were carried out using the software MassHunter. Quantification was based on external calibrations.
The Cparent-Ratio quantifies the extent of oxidation of the parent compound after the abiotic CYP reaction. It was calculated as the ratio of the parent compound concentration after oxidation (C parent, after oxidation) to its concentration before oxidation (C parent, before oxidation) as shown in eq . […] 8 Cparent‐Ratio=Cparent,after oxidation/Cparent,before oxidation

[4] = ERα bioassay, linear model, in M
[5] = ERα bioassay, log-logistic model
[6] = Bioassay ERα, log-logistic model fit

CC1(C)[C@H](O)C(C)(C)[C@H]1O [Trans TMCD]
EC10, linear transformed ([1]; ERα bioassay, in M): 3.18E-03 | EC10, linear [1, 4]: 3.03E-03 | logEC10 [1, 5]: -2.47

C=CCOc1ccc(S(=O)(=O)c2ccc(O)cc2)cc1 [BPS-MAE, 4-[[4-(Allyloxy)phenyl]sulfonyl]phenol]
EC10, ERα (M) [1]: 1.41 × 10^–5 M | EC10, linear transformed ([1]; Bioassay ERα, in M): 1.26E-05 | EC10, linear ([1]; Bioassay ERα, linear model fit, in M): 1.41E-05 | logEC10 [1, 6]: -4.90 | SR-ScoreERα [1]: 1.00 | EC10 ([1]; This Study, in M): 1.41E-05 | REPBPA ([1]; This Study): 2.63E-02 | EC10, ERα [1]: 14.1 µM | log(1/EC10) ERα [1]: 0.62 | cytotoxicity,median REPBPA,IC10 [2]: 0.37 | IC10,Median (M) [2]: 1.90 × 10^–4 M | IC10, median [2]: 190 µM

Cc1ccc(S(=O)(=O)NC(=O)Nc2ccc(Cc3ccc(NC(=O)NS(=O)(=O)c4ccc(C)cc4)cc3)cc2)cc1 [BTUM, 4,4'-Bis(p-tolylsulfonylureido)diphenylmethane]
EC10, linear ([1]; Bioassay ERα, linear model fit): no effect | logEC10 [1, 6]: no effect | ERα activation [1]: did not activate ERα at noncytotoxic concentrations | cytotoxicity,median REPBPA,IC10 [2]: 2.26 | IC10,Median (M) [2]: 3.10 × 10^–5 M | IC10, median [2]: 31 µM

Cc1cc(Cc2cc(C)c(O)c(C)c2)cc(C)c1O [TMBPF, Bis(3,5-dimethyl-4-hydroxyphenyl)methane]
EC10, linear ([1]; Bioassay ERα, linear model fit): no effect | logEC10 [1, 6]: no effect | ERα activation [1]: did not activate ERα at noncytotoxic concentrations | Emax ([1]; read-out: Emax%ERα): 0% | cytotoxicity,median REPBPA,IC10 [2]: 5.51 | IC10,Median (M) [2]: 1.27 × 10^–5 M | IC10, median [2]: 12.7 µM

CC1(C)C(O)C(C)(C)C1O (racemic) [r-TMCD, 2,2,4,4-Tetramethyl-1,3-cyclobutanediol (racemate)]
EC10, ERα (M) [1]: 1.29 × 10^–2 M | REPBPA,ERα (relative effect potency in relation to BPA) ([1]; EC10,BPA/EC10,BPx): 2.9 × 10^–5 | EC10, linear transformed ([1]; ERα bioassay, in M): 1.18E-02 | EC10, linear [1, 4]: 1.29E-02 | logEC10 [1, 5]: -1.93 | SR-ScoreERα [1]: 0.00722 | Efficacy % ([1]; This Study): <20% | EC10 ([1]; This Study, in M): 1.29E-02 | REPBPA ([1]; This Study): 2.88E-05 | Specificity ratio (SRbaseline) SRERα ([1]; against baseline cytotoxicity): 0.08 | EC10, ERα [1]: 12900 µM | log(1/EC10) ERα [1]: 0.24 | Relative effect potency REPERα ([1]; relative to BPA): 2.88e-5 | cytotoxicity,median REPBPA,IC10 [2]: 0.00844 | IC10,Median (M) [2]: 8.29 × 10^–3 M | IC10, median [2]: 8290 µM

CC(C)CC(C)(c1ccc(O)cc1)c1ccc(O)cc1 [BP-MIBK, 4,4'-(1,3-Dimethylbutylidene)diphenol]
% Loss [3]: 10%
